Assay results: US11807693B2 (priority 2014, dated 2023)
Read-outs that look alike come from different tables or passages of the source. Starred links: 1 amine or outer side, 2 acyl side, 3 side chain; linkers in the order of their positions; H or OH if unused. Non-standard residues stand in square brackets, D forms with d. Residues, ends and D or L forms follow the SMILES beside them. ξ: configuration not given here. *: point of attachment. Oic = O=C(O)[C@@H]1C[C@@H]2CCCC[C@@H]2N1; Phe(4-Cl) = N[C@@H](Cc1ccc(Cl)cc1)C(=O)O; γGlu = O=C(O)[C@H](CCC(=O)[*:2])N[*:1]; d(β3hF) = N[C@@H](CC(=O)O)Cc1ccccc1; NMeR = CN[C@@H](CCCNC(=N)N)C(=O)O; Palmitoyl = CCCCCCCCCCCCCCCC(=O)*; Tridecanoyl = CCCCCCCCCCCCC(=O)*; hArg = N=C(N)NCCCC[C@H](N)C(=O)O; Cha = N[C@@H](CC1CCCCC1)C(=O)O; Gly(N-CH2CH2OH) = O=C(O)CNCCO; αMeL = CC(C)C[C@](C)(N)C(=O)O; αMeP = C[C@@]1(C(=O)O)CCCN1; β3hV = CC(C)[C@H](N)CC(=O)O; β3hS = N[C@@H](CO)CC(=O)O; Ac6c = NC1(C(=O)O)CCCCC1; Nle = CCCC[C@H](N)C(=O)O; ξβ3hV = CC(C)C(N)CC(=O)O; AEEA = NCCOCCOCC(=O)O; Aib = CC(C)(N)C(=O)O

Key:
[1] = In vitro stability in rat liver homogenate; format: in vitro ADME; conditions: tissue homogenate
Outline: (§1)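 Peptide remaining was followed by high-resolution LC-MS of methanol-quenched, centrifuged samples with internal standard. Incubations were at 37° C. over 4 hr, peptides at 5 μM final in rat plasma or in rat liver or kidney homogenate.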

[2] = In vitro stability in rat plasma; format: in vitro ADME
Outline: as §1

[3] = In vitro stability in rat kidney homogenate; format: in vitro ADME; conditions: rat, tissue homogenate
Outline: as §1

rat APJ receptor = target: T1, rat APJ receptor (Rattus norvegicus, UniProt Q9JHG3); experiment: [35S] GTPγS assay, rat APJ receptor; format: biochemical
T1 construct: expressed in transfected cells
T1 sequence (Q9JHG3 1-377): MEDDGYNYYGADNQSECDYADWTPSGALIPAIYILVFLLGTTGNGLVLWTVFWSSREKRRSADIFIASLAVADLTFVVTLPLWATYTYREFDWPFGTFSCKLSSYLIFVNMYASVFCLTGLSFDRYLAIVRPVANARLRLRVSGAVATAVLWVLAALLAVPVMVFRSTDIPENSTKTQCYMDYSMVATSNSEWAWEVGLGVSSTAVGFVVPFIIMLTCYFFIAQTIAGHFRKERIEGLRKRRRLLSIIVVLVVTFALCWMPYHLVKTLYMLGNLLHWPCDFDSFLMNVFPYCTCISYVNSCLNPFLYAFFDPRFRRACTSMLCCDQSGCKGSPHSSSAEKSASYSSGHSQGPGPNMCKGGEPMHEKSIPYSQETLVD
Method: The membranes were incubated with modified peptides in the assay buffer. […] Bound [^35S] GTPγS was separated from free radiolabel by filtration. The filter bound radioactivity was determined by liquid scintillation counting.

[4] = rat APJ receptor, read-out: EC50 Rat APJ Receptor
[5] = Table 16, read-out: EC50 Rat APJ Receptor

Structure (SMILES) | remaining at 4 h, 5 μM [1] [%] | remaining at 4 h, 5 μM [2] [%] | remaining at 4 h, 5 μM [3] [%] | EC50 (rat APJ receptor; [4]) [nM] | EC50 (rat APJ receptor; [5]) [nM]
CCCCCCCCCCCCC(=O)N[C@@H](CCC(=O)NCCOCCOCC(=O)NCCOCCOCC(=O)N[C@@H](CCCCNC(=N)N)C(=O)N[C@@H](CCC(N)=O)C(=O)N[C@@H](CCCCNC(=N)N)C(=O)N1CCC[C@H]1C(=O)N(C)[C@@H](CCCNC(=N)N)C(=O)N[C@@H](CC1CCCCC1)C(=O)N[C@@H](CO)C(=O)N[C@@H](Cc1c[nH]cn1)C(=O)N[C@@H](CCCCN)C(=O)NCC(=O)N1[C@H](C(=O)N[C@@H](CCCC)C(=O)N2CCC[C@H]2C(=O)N[C@@H](Cc2ccc(Cl)cc2)C(=O)O)C[C@@H]2CCCC[C@@H]21)C(=O)O [compound 310] ({Tridecanoyl-γGlu-AEEA-AEEA}-[hArg]Q[hArg]P[NMeR][Cha]SHKG[Oic][Nle]P[Phe(4-Cl)]-OH) | 15 | > 90 | 1 | 0.364 | 
CCCCCCCCCCCCC(=O)N[C@@H](CCC(=O)NCCOCCOCC(=O)NCCOCCOCC(=O)N[C@@H](CCC(N)=O)C(=O)N[C@@H](CCCCNC(=N)N)C(=O)N1CCC[C@H]1C(=O)N(C)[C@@H](CCCNC(=N)N)C(=O)N[C@@H](CC1CCCCC1)C(=O)N[C@@H](CO)C(=O)N[C@@H](Cc1c[nH]cn1)C(=O)N[C@@H](CCCCN)C(=O)NCC(=O)N1[C@H](C(=O)N[C@@H](CCCC)C(=O)N2CCC[C@H]2C(=O)N[C@@H](Cc2ccc(Cl)cc2)C(=O)O)C[C@@H]2CCCC[C@@H]21)C(=O)O [compound 362] ({Tridecanoyl-γGlu-AEEA-AEEA}-Q[hArg]P[NMeR][Cha]SHKG[Oic][Nle]P[Phe(4-Cl)]-OH) | 39 | 79 | 2.5 |  | 3.75
CCCCCCCCCCCCCCCC(=O)N[C@@H](CCC(=O)NCCOCCOCC(=O)NCCOCCOCC(=O)N[C@H](CCC(N)=O)C(=O)N[C@@H](CCCNC(=N)N)C(=O)N1CCC[C@H]1C(=O)N(C)[C@@H](CCCNC(=N)N)C(=O)N[C@@H](CC1CCCCC1)C(=O)N[C@@H](CO)C(=O)N[C@@H](Cc1c[nH]cn1)C(=O)N[C@@H](CCCCN)C(=O)NCC(=O)N1[C@H](C(=O)N[C@@H](CCCC)C(=O)NC2(C(=O)N[C@@H](Cc3ccc(Cl)cc3)C(=O)O)CCCCC2)C[C@@H]2CCCC[C@@H]21)C(=O)O [compound 584] ({Palmitoyl-γGlu-AEEA-AEEA}-[dQ]RP[NMeR][Cha]SHKG[Oic][Nle][Ac6c][Phe(4-Cl)]-OH) | 77 | 62 | 6 | 52.2 | 
CCCCCCCCCCCCC(=O)N[C@@H](CCC(=O)NCCOCCOCC(=O)NCCOCCOCC(=O)N[C@@H](CCC(N)=O)C(=O)N(C)[C@@H](CCCNC(=N)N)C(=O)N[C@@](C)(CC(C)C)C(=O)N[C@@H](CO)C(=O)N[C@@H](Cc1c[nH]cn1)C(=O)N[C@@H](CCCCN)C(=O)NCC(=O)N1[C@H](C(=O)N[C@@H](CCCC)C(=O)N2CCC[C@H]2C(=O)N[C@@H](Cc2ccc(Cl)cc2)C(=O)O)C[C@@H]2CCCC[C@@H]21)C(=O)O [compound 397] ({Tridecanoyl-γGlu-AEEA-AEEA}-Q[NMeR][αMeL]SHKG[Oic][Nle]P[Phe(4-Cl)]-OH) | 2 | 87 | 1 |  | 16.5
CCCCCCCCCCCCC(=O)N[C@@H](CCC(=O)NCCOCCOCC(=O)NCCOCCOCC(=O)N[C@@H](CCC(N)=O)C(=O)N[C@@H](CCCCNC(=N)N)C(=O)N1CCC[C@H]1C(=O)N(C)[C@@H](CCCNC(=N)N)C(=O)N[C@@](C)(CC(C)C)C(=O)N[C@@H](CO)C(=O)N[C@@H](Cc1c[nH]cn1)C(=O)N[C@@H](CCCCN)C(=O)NCC(=O)N1[C@H](C(=O)N[C@@H](CCCC)C(=O)N2CCC[C@H]2C(=O)N[C@@H](Cc2ccc(Cl)cc2)C(=O)O)C[C@@H]2CCCC[C@@H]21)C(=O)O [compound 359] ({Tridecanoyl-γGlu-AEEA-AEEA}-Q[hArg]P[NMeR][αMeL]SHKG[Oic][Nle]P[Phe(4-Cl)]-OH) | 3 | 62 | 2 |  | 0.116
CCCCCCCCCCCCCCCC(=O)N[C@@H](CCC(=O)NCCOCCOCC(=O)NCCOCCOCC(=O)N[C@H](CCC(N)=O)C(=O)N[C@@H](CCCNC(=N)N)C(=O)N1CCC[C@H]1C(=O)N(C)[C@@H](CCCNC(=N)N)C(=O)N[C@@H](CC1CCCCC1)C(=O)N[C@@H](CO)C(=O)N[C@@H](Cc1c[nH]cn1)C(=O)N[C@@H](CCCCN)C(=O)NCC(=O)N1[C@H](C(=O)N[C@@H](CCCC)C(=O)N2CCC[C@@]2(C)C(=O)N[C@@H](CC(=O)O)Cc2ccccc2)C[C@@H]2CCCC[C@@H]21)C(=O)O [compound 570] ({Palmitoyl-γGlu-AEEA-AEEA}-[dQ]RP[NMeR][Cha]SHKG[Oic][Nle][αMeP][d(β3hF)]-OH) | 32 | > 90 | 11 | 19.8 | 
CCCCCCCCCCCCC(=O)N[C@@H](CCC(=O)NCCOCCOCC(=O)NCCOCCOCC(=O)N[C@H](CCC(N)=O)C(=O)N[C@@H](CCCNC(=N)N)C(=O)N1CCC[C@H]1C(=O)N(C)[C@@H](CCCNC(=N)N)C(=O)N[C@@H](CC1CCCCC1)C(=O)N[C@@H](CO)CC(=O)N[C@@H](Cc1c[nH]cn1)C(=O)N[C@@H](CCCCN)C(=O)NCC(=O)N1[C@H](C(=O)N[C@@H](CCCC)C(=O)NC(C)(C)C(=O)N[C@@H](Cc2ccc(Cl)cc2)C(=O)O)C[C@@H]2CCCC[C@@H]21)C(=O)O [compound 500] ({Tridecanoyl-γGlu-AEEA-AEEA}-[dQ]RP[NMeR][Cha][β3hS]HKG[Oic][Nle][Aib][Phe(4-Cl)]-OH) | 13 | > 90 | < 1 |  | 3.14
CCCCCCCCCCCCC(=O)N[C@@H](CCC(=O)NCCOCCOCC(=O)NCCOCCOCC(=O)NC(CC(=O)N[C@@H](CCCNC(=N)N)C(=O)N1CCC[C@H]1C(=O)N(C)[C@@H](CCCNC(=N)N)C(=O)NC(CC(=O)N[C@@H](CO)C(=O)N[C@@H](Cc1c[nH]cn1)C(=O)N[C@@H](CCCCN)C(=O)NCC(=O)N1[C@H](C(=O)N[C@@H](CCCC)C(=O)N2CCC[C@H]2C(=O)N[C@@H](Cc2ccc(Cl)cc2)C(=O)O)C[C@@H]2CCCC[C@@H]21)C(C)C)C(C)C)C(=O)O (stereo partly drawn) [compound 394] ({Tridecanoyl-γGlu-AEEA-AEEA}-[ξβ3hV]RP[NMeR][ξβ3hV]SHKG[Oic][Nle]P[Phe(4-Cl)]-OH) | 8 | 86 | 2 | 1.5 | 
CCCCCCCCCCCCC(=O)N[C@@H](CCC(=O)NCCOCCOCC(=O)NCCOCCOCC(=O)N[C@@H](CCC(N)=O)C(=O)N[C@@H](CCCNC(=N)N)C(=O)N1CCC[C@H]1C(=O)N(C)[C@@H](CCCNC(=N)N)C(=O)N[C@@H](CC(C)C)C(=O)N[C@@H](CO)C(=O)N[C@@H](Cc1c[nH]cn1)C(=O)N[C@@H](CCCCN)C(=O)NCC(=O)N1CCC[C@H]1C(=O)N[C@@H](CCCC)C(=O)N1CCC[C@@]1(C)C(=O)N[C@@H](Cc1ccc(Cl)cc1)C(=O)O)C(=O)O [compound 401] | 1 | 6 | 3 |  | 0.351
CCCCCCCCCCCCCCCC(=O)N[C@@H](CCC(=O)NCCOCCOCC(=O)NCCOCCOCC(=O)N[C@H](CCC(N)=O)C(=O)N[C@@H](CCCNC(=N)N)C(=O)N1CCC[C@H]1C(=O)N(C)[C@@H](CCCNC(=N)N)C(=O)N[C@@H](CC1CCCCC1)C(=O)N[C@@H](CO)C(=O)N[C@@H](Cc1c[nH]cn1)C(=O)N[C@@H](CCCCN)C(=O)NCC(=O)N1[C@H](C(=O)N[C@@H](CCCC)C(=O)N[C@@H](CC(=O)O)Cc2ccccc2)C[C@@H]2CCCC[C@@H]21)C(=O)O [compound 573] ({Palmitoyl-γGlu-AEEA-AEEA}-[dQ]RP[NMeR][Cha]SHKG[Oic][Nle][d(β3hF)]-OH) | 59 | 79 | 27 | 4.25 | 
CCCCCCCCCCCCC(=O)N[C@@H](CCC(=O)NCCOCCOCC(=O)NCCOCCOCC(=O)N[C@@H](CCC(N)=O)C(=O)N[C@@H](CCCNC(=N)N)C(=O)N1CCC[C@H]1C(=O)N(C)[C@@H](CCCNC(=N)N)C(=O)N[C@@H](CC(C)C)C(=O)N(CCO)CC(=O)N[C@@H](Cc1c[nH]cn1)C(=O)N[C@@H](CCCCN)C(=O)NCC(=O)N1CCC[C@H]1C(=O)N[C@@H](CCCC)C(=O)N1CCC[C@H]1C(=O)N[C@@H](Cc1ccc(Cl)cc1)C(=O)O)C(=O)O [compound 467] ({Tridecanoyl-γGlu-AEEA-AEEA}-QRP[NMeR]L[Gly(N-CH2CH2OH)]HKGP[Nle]P[Phe(4-Cl)]-OH) | 87 | 27 | 83 |  | 
CCCCCCCCCCCCC(=O)N[C@@H](CCC(=O)NCCOCCOCC(=O)NCCOCCOCC(=O)N[C@H](CC(=O)N[C@@H](CCCNC(=N)N)C(=O)N1CCC[C@H]1C(=O)N(C)[C@@H](CCCNC(=N)N)C(=O)N[C@@H](CC1CCCCC1)C(=O)N[C@@H](CO)C(=O)N[C@@H](Cc1c[nH]cn1)C(=O)N[C@@H](CCCCN)C(=O)NCC(=O)N1[C@H](C(=O)N[C@@H](CCCC)C(=O)N2CCC[C@H]2C(=O)N[C@@H](Cc2ccc(Cl)cc2)C(=O)O)C[C@@H]2CCCC[C@@H]21)C(C)C)C(=O)O [compound 393] ({Tridecanoyl-γGlu-AEEA-AEEA}-[β3hV]RP[NMeR][Cha]SHKG[Oic][Nle]P[Phe(4-Cl)]-OH) | 12 | > 90 | 2 |  | 
